Test results reported in the NIST ThermoML archive (doi:10.1021/je400250u).

Legend:
[1] = xn = mol fraction of the nth substance listed; settings: 100 kPa, Liquid; for viscosity: Capillary tube (Ostwald / Ubbelohde) method; for mass density: Vibrating tube method
[2] = refractive index (Na D-line) (dimensionless); xn = mol fraction of the nth substance listed; settings: 100 kPa, Liquid, Standard Abbe refractometry

C1CC[C@H]2CCCC[C@H]2C1 [cis-decahydronaphthalene] + CCCCCCCCCCC
Settings	mass density, [1] [kg/m3]	refractive index, [2]	viscosity, [1] [mPa·s]
293.15 K, x1 = 0.1086	753.22	–	1.24
293.15 K, x1 = 0.2072	765.62	–	1.31
293.15 K, x1 = 0.3066	778.83	–	1.415
293.15 K, x1 = 0.4031	792.39	–	1.542
293.15 K, x1 = 0.5028	807.23	–	1.69
293.15 K, x1 = 0.5976	822.17	–	1.829
293.15 K, x1 = 0.6835	836.42	–	2.021
293.15 K, x1 = 0.7983	856.82	–	2.368
293.15 K, x1 = 0.8954	875.37	–	2.726
293.15 K, x1 = 1	896.85	–	3.355
298.15 K, x1 = 0.1086	749.55	1.4192	1.148
298.15 K, x1 = 0.2072	761.95	1.4242	1.208
298.15 K, x1 = 0.3066	775.16	1.4294	1.3
298.15 K, x1 = 0.4031	788.74	–	1.415
298.15 K, x1 = 0.4075	–	1.4352	–
298.15 K, x1 = 0.5028	803.55	–	1.554
298.15 K, x1 = 0.5059	–	1.4411	–
298.15 K, x1 = 0.592	–	1.4469	–
298.15 K, x1 = 0.5976	818.48	–	1.67
298.15 K, x1 = 0.6835	832.71	1.4532	1.84
298.15 K, x1 = 0.7983	853.1	1.4609	2.139
298.15 K, x1 = 0.8954	871.62	1.4686	2.458
298.15 K, x1 = 1	893.06	1.4776	3.011
303.15 K, x1 = 0.1086	745.85	–	1.062
303.15 K, x1 = 0.2072	758.26	–	1.112
303.15 K, x1 = 0.3066	771.47	–	1.201
303.15 K, x1 = 0.4031	785.05	–	1.326
303.15 K, x1 = 0.5028	799.85	–	1.424
303.15 K, x1 = 0.5976	814.77	–	1.53
303.15 K, x1 = 0.6835	828.99	–	1.682
303.15 K, x1 = 0.7983	849.36	–	1.949
303.15 K, x1 = 0.8954	867.86	–	2.233
303.15 K, x1 = 1	889.26	–	2.718
308.15 K, x1 = 0.1086	742.15	1.4151	0.977
308.15 K, x1 = 0.2072	754.56	1.4198	1.034
308.15 K, x1 = 0.3066	767.77	1.4251	1.111
308.15 K, x1 = 0.4031	781.35	–	1.215
308.15 K, x1 = 0.4075	–	1.431	–
308.15 K, x1 = 0.5028	796.14	–	1.307
308.15 K, x1 = 0.5059	–	1.4366	–
308.15 K, x1 = 0.592	–	1.4426	–
308.15 K, x1 = 0.5976	811.05	–	1.41
308.15 K, x1 = 0.6835	825.27	1.4487	1.546
308.15 K, x1 = 0.7983	845.62	1.4565	1.818
308.15 K, x1 = 0.8954	864.1	1.464	2.035
308.15 K, x1 = 1	885.46	1.4736	2.47
313.15 K, x1 = 0.1086	738.44	–	0.903
313.15 K, x1 = 0.2072	750.84	–	0.962
313.15 K, x1 = 0.3066	764.05	–	1.034
313.15 K, x1 = 0.4031	777.64	–	1.115
313.15 K, x1 = 0.5028	792.42	–	1.204
313.15 K, x1 = 0.5976	807.33	–	1.303
313.15 K, x1 = 0.6835	821.53	–	1.426
313.15 K, x1 = 0.7983	841.87	–	1.673
313.15 K, x1 = 0.8954	860.33	–	1.859
313.15 K, x1 = 1	881.65	–	2.252
318.15 K, x1 = 0.1086	734.71	1.4114	0.843
318.15 K, x1 = 0.2072	747.12	1.416	0.899
318.15 K, x1 = 0.3066	760.33	1.4213	0.964
318.15 K, x1 = 0.4031	773.91	–	1.038
318.15 K, x1 = 0.4075	–	1.4275	–
318.15 K, x1 = 0.5028	788.7	–	1.119
318.15 K, x1 = 0.5059	–	1.4331	–
318.15 K, x1 = 0.592	–	1.4383	–
318.15 K, x1 = 0.5976	803.6	–	1.209
318.15 K, x1 = 0.6835	817.79	1.4448	1.319
318.15 K, x1 = 0.7983	838.11	1.4536	1.505
318.15 K, x1 = 0.8954	856.55	1.4612	1.71
318.15 K, x1 = 1	877.85	1.4696	2.063
323.15 K, x1 = 0.1086	730.98	–	0.786
323.15 K, x1 = 0.2072	743.39	–	0.841
323.15 K, x1 = 0.3066	756.6	–	0.9
323.15 K, x1 = 0.4031	770.18	–	0.97
323.15 K, x1 = 0.5028	784.96	–	1.043
323.15 K, x1 = 0.5976	799.86	–	1.124
323.15 K, x1 = 0.6835	814.05	–	1.225
323.15 K, x1 = 0.7983	834.35	–	1.392
323.15 K, x1 = 0.8954	852.77	–	1.577
323.15 K, x1 = 1	874.05	–	1.898
